These are literature values, as cited in patent publication US20050058675A1, “Fullerene compositions for ameliorating dermatological conditions” (priority 2003, published 2005).

For the data set, the system named is mice. Conditions: oral, about 0.5 mg/kg/day.

As to C60(>C(COOH)2)3 [C3], the “increase in mean survival relative to controls” value is approximately 20%. Moreover, the mean survival (controls 23.5+/−5.5 months, p=0.033) is 28.7+/−3.3 months.
